For assay [1], the system named is Wild buckwheat. Description: Ex34 PRE 2,4-DC + napropamide, % control, Colby. The class given is in vivo, Polygonum convolvulus. The note with it: 28 DAT. The text has this:
(§1) Thereafter flats were watered and fertilized routinely.

In assay [2] the test system is Annual bluegrass. Description: Ex34 PRE 2,4-DC + napropamide, % control, Colby. It counts as in vivo, Poa annua. The note with it: 28 DAT.
Description: as §1

Assay [3] relates to weeds; Wheat, barley, and oil seed rape (OSR). Nature of the assay: Ex19 PRE greenhouse. It counts as in vivo. The conditions noted are these: rate in the words. The text has this: In this study, the crops tested included Wheat, barley, and oil seed rape (OSR).
To determine weed efficacy and wheat, barley or OSR selectivity, 2,4 DC (CS 36.7%) and Diflufenican (CS 19.5%) were applied preemergence either alone or as tank-mix partners at the following rates. 2,4 DC was applied at 125, 170, 210 and 250 g ai/ha while Diflufenican was applied at 50, 75, and 100 g ai/ha. Pyroxasulfone (KIH-485, 85%) at 74.3 g ai/ha, pendimethalin (Prowl 3.3EC, 37.4%) at 1200 g ai/ha, or a premix of chlorsulfuron plus metsulfuron-methyl (Report Extra, 75%) at 15.8 g ai/ha were applied as commercial standards.
Herbicides included as standards for comparison were pyroxasulfone, pendimethalin, and a pre mix of chlorsulfuron plus metsulfuron methyl, all applied at labeled rates as indicated above. Treatments were replicated 3 times. […] Thereafter flats were watered and fertilized routinely.

Assay [4] relates to weeds; cotton, lentil, mung bean, bush bean, and cowpea. Description: Ex33 PRE greenhouse. It counts as in vivo. The note with it: rate in the words. The text has this:
ANTHEM® (fluthiacet-methyl, 0.69% plus pyroxasulfone, 22.61%) was included as a standard at labeled rate, Fluthiacet-methyl at 4.9 g ai/ha and pyroxasulfone at 165 g ai/ha. […] The following weeds were screened, Palmer amaranth, Pennsylvania smartweed, velvetleaf, green foxtail, morningglory, Italian ryegrass, prickly sida, and yellow nutsedge. Crops screened were cotton, lentil, mung bean, bush bean, and cowpea. […] Thereafter flats were watered and fertilized routinely.

For assay [5], the system named is Common ragweed. Nature of the assay: Ex16 PRE 2,4-DC + pyroxasulfone, % control 28 DAT, Colby. The class given is in vivo, Ambrosia artemisiifolia. The text has this:
To determine PRE efficacy, five levels of 2,4 DC (36.7% CS) 0, 125, 170, 210, or 250 g ai/ha and five levels of pyroxasulfone (KIH485-85WG) 0, 50, 65, 80, or 95 g ai/ha were applied either alone or as tank-mix. Additional treatments consisted of premix of pyroxasulfone plus fluthiacet-methyl (Anthem™ 23.3%) at 169.9 g ai/ha, S-metolachlor (Dual II Magnum, 82.4%) at 1388 g, and tank-mix of mesotrione (Callisto, 40%) at 123 g plus S-metolachlor at 1252 g. […] Treatments were applied before the emergence of black nightshade, giant foxtail, green foxtail, yellow foxtail, large crabgrass, kochia, redroot pigweed, common ragweed, and barnyardgrass.
Flats were watered and fertilized routinely after treatment application. Each treatment was replicated three times.

The subject of assay [6] is weeds; Corn (var. Viking). Description: Ex15 PRE greenhouse. The note with it: rate in the words. The class given is in vivo. The text has this:
The weeds tested in this study were redroot pigweed (Amaranthus retroflexus, AMARE), Jimsonweed (Datura stramonium, DATST), black nightshade (Solanum nigrum, SOLNI), large crabgrass (Digitaria sanguinalis, DIGSA), Pennsylvania smartweed (Polygonum pensylvanicum, POLPY), horseweed (Conyza canadensis, ERICA), wild buckwheat (Polygonum convolvulus, POLCO). The crop tested was Corn (var. Viking).
To determine PRE efficacy and corn injury, five rates of each 2,4 DC (36.7% CS) and S-metolachlor (Dual II Magnum®, 82.4%) were applied either alone or as tank-mix. 2,4 DC was applied at 0, 125, 170, 210, or 250 g ai/ha and S-metolachlor was applied at 0, 267, 534, 801, or 1070 g ai/ha. Additional treatments included application of premix of pyroxasulfone plus fluthiacet-methyl (Anthem™ 23.3%) at 169.9 g ai/ha and tank-mix of mesotrione (Callisto®, 40%) at 123 g plus S-metolachlor at 1252 g. Treatments were applied just after the planting of large crabgrass, Jimsonweed, black nightshade, redroot pigweed, Pennsylvania smartweed, horseweed, wild buckwheat, and corn.
Flats were watered and fertilized routinely after treatment application. Each treatment was replicated three times. […] Corn injury was rated for bleaching and stunting.

For assay [7], the system named is Velvetleaf. Nature of the assay: Ex37 PRE 2,4-DC + atrazine, % control 28 DAT, Colby. The class given is in vivo, Abutilon theophrasti. The text has this: S-metolachlor (DUAL II MAGNUM®, 82.4%) at 525 g ai/h plus atrazine at 560 g ai/h was included as a standard for comparison. […] Thereafter flats were watered and fertilized routinely.
For assay [8], the system named is Ivyleaf morningglory. Description: Ex17 PRE 2,4 DC + isoxaflutole, % control 28 DAT, Colby. It counts as in vivo, Ipomoea hederacea. As for the experimental part:
In this example a study was conducted to determine weed efficacy and sugarcane injury when 2,4 DC or isoxaflutole are applied either alone or tank-mix as preemergence against the weeds: Ivyleaf morningglory (Ipomoea hederacea, IPOHE), hairy beggartickss (Bidens pilosa, BIDPI), yellow nutsedge (Cyperus esculentus, CYPES), large crabgrass (Digitaria sanguinalis, DIGSA), and redroot pigweed (Amaranthus retroflexus, AMARE). The crop tested in this study was Sugarcane (var. CTC 20).
To determine weed efficacy and sugarcane selectivity, 2,4 DC (SC 36%) and isoxaflutole (Balance Flexx®, 20%) were applied PRE either alone or as tank-mix partners at rates mentioned below. 2,4 DC was applied at 500, 750, and 1000 g ai/ha while isoxaflutole was applied at 80, 100, and 120 g ai/ha. […] Treatments were applied PRE to sugarcane (var. CTC 20), ivyleaf morningglory, hairy beggarticks, yellow nutsedge, large crabgrass, and redroot pigweed. […] Soil was watered before application and watered lightly after application. Flats were watered and fertilized routinely after treatment application.

Entries after “also recorded” stand apart in the source; their conditions may differ.

As for `CC1(C)CON(Cc2ccc(Cl)cc2Cl)C1=O` [2,4-DC, 2-(2,4-dichlorophenyl)methyl-4,4-dimethyl-3-isoxazolidinone], the X was determined as 10% in assay [1] (2,4-DC alone 31 g ai/ha); 8% in assay [1] (2,4-DC alone 63 g ai/ha); 8% in assay [1] (2,4-DC alone 125 g ai/ha); 23% in assay [1] (2,4-DC alone 250 g ai/ha); 37% in assay [1] (2,4-DC alone 375 g ai/ha); 0% in assay [2] (2,4-DC alone 31 g ai/ha). The X amounted to 2% in assay [2] (2,4-DC alone 63 g ai/ha); 12% in assay [2] (2,4-DC alone 125 g ai/ha); 40% in assay [2] (2,4-DC alone 250 g ai/ha); 63% in assay [2] (2,4-DC alone 375 g ai/ha); 33% in assay [5] (2,4-DC alone 125 g ai/ha); 40% in assay [5] (2,4-DC alone 170 g ai/ha). Moreover, the X is listed as 40% in assay [5] (2,4-DC alone 210 g ai/ha); 45% in assay [5] (2,4-DC alone 250 g ai/ha); 67% in assay [8] (2,4-DC alone 500 g ai/ha); 78% in assay [8] (2,4-DC alone 750 g ai/ha); 88% in assay [8] (2,4-DC alone 1000 g ai/ha). Also, the “weed control / crop safety in words” value is “applied at 125 g ai/ha provided suppression (70-84% injury) to corn poppy, higher rates controlled (≥85% injury) corn poppy; also recorded: Wheat, barley, and oilseed rape (OSR) were safe (≤10% injury) with all stand alone treatments” in assay [3]; “controlled prickly sida, at 125 g controlled green foxtail” in assay [4]; “applied alone PRE was safe on cotton, mung bean, bush bean, and cowpea at all rates, lentil was not safe at any rate” in assay [4] (listed as 2, 4 DC); “alone controlled large crabgrass at 170 g ai/ha or 250 g and it was safe on corn at all rate” in assay [6]. The “X (% control, 2,4-DC alone)” value in assay [7] (PRE, 2,4-DC 50 g ai/ha) stood at 18%; in assay [7] (PRE, 2,4-DC 100 g ai/ha), 19%; in assay [7] (PRE, 2,4-DC 200 g ai/ha), 90%.

Values taken from patent US12616203B2, “Use of 3-isoxazolidinones compounds as selective herbicides” (FMC Corporation, priority 2014, dated 2026).
